Experimental data: patent publication US10053465B2 (Incyte Corporation, priority 2015, dated 2018)
Like-named read-outs stand apart in the source and are kept apart here.

Key:
[1] = molecular target: Tyro3 (Homo sapiens (Human), UniProt Q06418); assay: biochemical; details: read-out: Tyro3IC50
Protocol: (§1) 0.1 ul test compounds dissolved in DMSO were transferred from compound plates to white 384-well assay plates (Greiner [sequence] plates). […] The plate was protected from light and incubated at room temperature for 60 min.

[2] = molecular target: c-Mer (Homo sapiens (Human), UniProt Q12866); details: read-out: c-Mer IC50; HTRF, 60 min room temperature
Protocol: as §1

[3] = molecular target: Phospho-Axl (Homo sapiens (Human), UniProt P30530); assay: biochemical;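 further: test system is recombinant Axl protein that was first autophosphorylated with ATP and MgCl2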
Sequence of Phospho-Axl (P30530 26-894): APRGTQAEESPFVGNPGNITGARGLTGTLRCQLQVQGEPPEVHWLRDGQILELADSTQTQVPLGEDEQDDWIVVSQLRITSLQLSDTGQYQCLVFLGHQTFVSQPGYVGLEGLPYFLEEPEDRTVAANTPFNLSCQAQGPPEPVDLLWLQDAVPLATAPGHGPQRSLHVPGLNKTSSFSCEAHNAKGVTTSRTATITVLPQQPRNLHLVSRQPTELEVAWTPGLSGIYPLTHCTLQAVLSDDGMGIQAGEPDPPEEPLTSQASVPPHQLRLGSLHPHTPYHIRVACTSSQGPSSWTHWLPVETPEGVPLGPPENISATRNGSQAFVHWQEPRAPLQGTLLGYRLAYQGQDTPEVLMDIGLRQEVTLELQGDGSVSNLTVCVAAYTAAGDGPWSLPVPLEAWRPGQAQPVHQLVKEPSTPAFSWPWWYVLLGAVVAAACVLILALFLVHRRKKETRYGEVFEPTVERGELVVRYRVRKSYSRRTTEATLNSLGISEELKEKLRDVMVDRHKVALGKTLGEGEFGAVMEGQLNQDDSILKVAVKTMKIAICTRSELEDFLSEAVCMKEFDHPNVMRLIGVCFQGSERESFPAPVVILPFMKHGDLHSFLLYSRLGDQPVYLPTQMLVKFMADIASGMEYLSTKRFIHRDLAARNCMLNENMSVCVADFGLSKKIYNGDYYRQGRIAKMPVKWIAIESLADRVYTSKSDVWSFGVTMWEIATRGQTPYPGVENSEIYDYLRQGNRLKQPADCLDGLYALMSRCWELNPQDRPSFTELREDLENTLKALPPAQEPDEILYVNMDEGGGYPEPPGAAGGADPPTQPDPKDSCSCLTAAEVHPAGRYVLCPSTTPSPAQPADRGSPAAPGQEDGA
Protocol: Autophosphorylation of Axl was carried out by incubating the recombinant Axl protein (Life Technologies, PV4275) in buffer containing 50 mM Tris, pH7.5, 0.2 mg/ml Axl, 5 mM ATP, 20 mM MgCl2 and 2 mM DTT at room temperature for 1 hour.
as §1

Sequence of Tyro3 (Q06418 41-890): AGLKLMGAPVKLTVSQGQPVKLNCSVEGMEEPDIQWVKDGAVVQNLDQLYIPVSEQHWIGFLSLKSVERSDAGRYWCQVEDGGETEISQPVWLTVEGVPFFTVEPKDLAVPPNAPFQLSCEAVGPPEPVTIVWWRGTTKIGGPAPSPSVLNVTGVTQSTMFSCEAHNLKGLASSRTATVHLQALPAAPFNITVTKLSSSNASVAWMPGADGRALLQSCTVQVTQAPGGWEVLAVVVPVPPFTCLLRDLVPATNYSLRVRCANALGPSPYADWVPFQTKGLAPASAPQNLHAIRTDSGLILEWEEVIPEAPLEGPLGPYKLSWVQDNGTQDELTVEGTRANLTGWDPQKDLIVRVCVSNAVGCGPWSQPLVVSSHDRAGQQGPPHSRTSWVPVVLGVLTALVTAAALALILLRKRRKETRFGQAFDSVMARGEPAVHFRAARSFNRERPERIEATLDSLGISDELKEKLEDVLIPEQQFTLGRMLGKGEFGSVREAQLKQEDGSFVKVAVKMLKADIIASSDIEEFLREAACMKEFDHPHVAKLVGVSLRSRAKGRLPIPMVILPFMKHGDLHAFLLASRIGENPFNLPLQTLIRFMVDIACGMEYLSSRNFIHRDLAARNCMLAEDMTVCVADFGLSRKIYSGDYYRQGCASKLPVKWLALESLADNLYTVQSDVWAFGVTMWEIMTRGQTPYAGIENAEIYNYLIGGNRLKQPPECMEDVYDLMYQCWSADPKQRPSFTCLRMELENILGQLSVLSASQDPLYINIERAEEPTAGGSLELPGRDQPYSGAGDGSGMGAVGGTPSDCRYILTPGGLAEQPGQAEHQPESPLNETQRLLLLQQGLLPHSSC
Sequence of c-Mer (Q12866 21-999): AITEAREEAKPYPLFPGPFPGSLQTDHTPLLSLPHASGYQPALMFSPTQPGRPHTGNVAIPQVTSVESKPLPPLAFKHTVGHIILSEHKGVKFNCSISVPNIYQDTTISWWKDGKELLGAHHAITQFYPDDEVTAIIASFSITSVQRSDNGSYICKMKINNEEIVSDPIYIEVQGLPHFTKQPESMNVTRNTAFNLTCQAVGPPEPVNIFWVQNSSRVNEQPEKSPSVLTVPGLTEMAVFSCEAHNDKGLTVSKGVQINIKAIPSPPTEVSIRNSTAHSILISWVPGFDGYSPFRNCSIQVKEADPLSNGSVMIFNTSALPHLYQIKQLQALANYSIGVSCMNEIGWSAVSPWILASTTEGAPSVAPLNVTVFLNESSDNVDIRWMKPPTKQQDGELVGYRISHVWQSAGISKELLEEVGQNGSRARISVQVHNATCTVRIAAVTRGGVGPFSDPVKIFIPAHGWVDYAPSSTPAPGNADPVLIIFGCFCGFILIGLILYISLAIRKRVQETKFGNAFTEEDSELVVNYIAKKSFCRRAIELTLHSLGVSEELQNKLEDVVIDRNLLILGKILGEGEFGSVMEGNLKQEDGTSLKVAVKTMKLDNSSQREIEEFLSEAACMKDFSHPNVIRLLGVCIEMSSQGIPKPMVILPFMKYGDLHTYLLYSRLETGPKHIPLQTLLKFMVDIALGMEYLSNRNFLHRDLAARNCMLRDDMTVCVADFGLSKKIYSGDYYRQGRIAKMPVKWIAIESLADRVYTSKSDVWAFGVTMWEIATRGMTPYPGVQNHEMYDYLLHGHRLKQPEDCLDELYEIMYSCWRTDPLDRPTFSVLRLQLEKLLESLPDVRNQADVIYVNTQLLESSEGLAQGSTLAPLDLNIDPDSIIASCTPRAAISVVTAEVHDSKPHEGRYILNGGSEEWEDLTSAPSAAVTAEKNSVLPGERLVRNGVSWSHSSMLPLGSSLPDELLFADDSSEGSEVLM

Compound `O=C(NCC1(c2cccc(-c3ncnc4[nH]ccc34)c2)Cc2ccccc2C1)N1CCOCC1` [Example 35, N-({2-[3-(7H-Pyrrolo[2,3-d]pyrimidin-4-yl)phenyl]-2,3-dihydro-1H-inden-2-yl}methyl)morpholine-4-carboxamide] has an IC50 [1] greater than 3000 nM and an IC50 [2] greater than 3000 nM.
With `N#CCC1(c2cccc(-c3ncnc4[nH]ccc34)c2)Cc2ccccc2C1` [Example 36, {2-[3-(7H-Pyrrolo[2,3-d]pyrimidin-4-yl)phenyl]-2,3-dihydro-1H-inden-2-yl}acetonitrile] the IC50 [1] was greater than 3000 nM.
`NCCC1(c2cccc(-c3ncnc4[nH]ccc34)c2)Cc2ccccc2C1` [Example 37, 2-{2-[3-(7H-Pyrrolo[2,3-d]pyrimidin-4-yl)phenyl]-2,3-dihydro-1H-inden-2-yl}ethanamine] showed an IC50 ([3]; HTRF, 60 min room temperature) of less than 500 nM and an IC50 [1] greater than 3000 nM.
Compound `CC(C)C(=O)NCCC1(c2cccc(-c3ncnc4[nH]ccc34)c2)Cc2ccccc2C1` [Example 38, 2-Methyl-N-(2-{2-[3-(7H-pyrrolo[2,3-d]pyrimidin-4-yl)phenyl]-2,3-dihydro-1H-inden-2-yl}ethyl)propanamide] has an IC50 [1] greater than 3000 nM.
In the case of `O=C(NCCC1(c2cccc(-c3ncnc4[nH]ccc34)c2)Cc2ccccc2C1)C1CC1` [Example 39, N-(2-{2-[3-(7H-Pyrrolo[2,3-d]pyrimidin-4-yl)phenyl]-2,3-dihydro-1H-inden-2-yl}ethyl)cyclopropanecarboxamide], the IC50 ([3]; HTRF, 60 min room temperature) is reported as less than 500 nM and the IC50 [1] is reported as greater than 3000 nM.
`NCC1(c2cccc(-c3ncnc4[nH]ccc34)c2)Cc2ccc(CNC3CC3)cc2C1` (centres unmarked) [Example 40, N-((2-(3-(7H-Pyrrolo[2,3-d]pyrimidin-4-yl)phenyl)-2-(aminomethyl)-2,3-dihydro-1H-inden-5-yl)methyl)cyclopropanamine] gave an IC50 [1] greater than 3000 nM and an IC50 [2] greater than 3000 nM.
Work on `NCC1(c2cccc(-c3ncnc4[nH]ccc34)c2)Cc2ccc(CNC3CCC3)cc2C1` (centres unmarked) [Example 41, N-((2-(3-(7H-Pyrrolo[2,3-d]pyrimidin-4-yl)phenyl)-2-(aminomethyl)-2,3-dihydro-1H-inden-5-yl)methyl)cyclobutanamine] yielded an IC50 [1] greater than 3000 nM and an IC50 [2] greater than 3000 nM.
Compound `NCC1(c2cccc(-c3ncnc4[nH]ccc34)c2)Cc2ccc(CN3CCC[C@@H]3C(N)=O)cc2C1` (stereo partly drawn) [Example 43, (2R)-1-((2-(3-(7H-Pyrrolo[2,3-d]pyrimidin-4-yl)phenyl)-2-(aminomethyl)-2,3-dihydro-1H-inden-5-yl)methyl)pyrrolidine-2-carboxamide] has an IC50 ([3]; HTRF, 60 min room temperature) greater than 3000 nM and an IC50 [1] greater than 3000 nM.
With `NCC1(c2cccc(-c3ncnc4[nH]ccc34)c2)Cc2ccc(CN3CC[C@H](C(N)=O)C3)cc2C1` (stereo partly drawn) [Example 44, (3S)-1-((2-(3-(7H-Pyrrolo[2,3-d]pyrimidin-4-yl)phenyl)-2-(aminomethyl)-2,3-dihydro-1H-inden-5-yl)methyl)pyrrolidine-3-carboxamide] the IC50 [2] was greater than 3000 nM.
Work on `NCC1(c2cccc(-c3ncnc4[nH]ccc34)c2)Cc2ccc(CN3CCC3)cc2C1` (centres unmarked) [Example 46, (2-(3-(7H-Pyrrolo[2,3-d]pyrimidin-4-yl)phenyl)-5-(azetidin-1-ylmethyl)-2,3-dihydro-1H-inden-2-yl)methanamine] yielded an IC50 [2] greater than 3000 nM.
With `NCC1(c2cccc(-c3ncnc4[nH]ccc34)c2)Cc2ccc(CN3CC(F)C3)cc2C1` (centres unmarked) [Example 47, (2-(3-(7H-Pyrrolo[2,3-d]pyrimidin-4-yl)phenyl)-5-((3-fluoroazetidin-1-yl)methyl)-2,3-dihydro-1H-inden-2-yl)methanamine] the IC50 [2] was greater than 3000 nM.
Work on `N#Cc1ccc2c(c1)CC(CNC(=O)C1CC1)(c1cccc(-c3ncnc4[nH]ccc34)c1)C2` (centres unmarked) [Example 50, N-({5-Cyano-2-[3-(7H-pyrrolo[2,3-d]pyrimidin-4-yl)phenyl]-2,3-dihydro-1H-inden-2-yl}methyl)cyclopropanecarboxamide] yielded an IC50 [1] greater than 3000 nM.
With `CN(C)C1CCN(c2ccc3c(c2)CC(CN)(c2cccc(-c4ncnc5[nH]ccc45)c2)C3)C1` (centres unmarked) [Example 52, 1-{2-(Aminomethyl)-2-[3-(7H-pyrrolo[2,3-d]pyrimidin-4-yl)phenyl]-2,3-dihydro-1H-inden-5-yl}-N,N-dimethylpyrrolidin-3-amine] the IC50 ([3]; HTRF, 60 min room temperature) was greater than 3000 nM and the IC50 [1] was greater than 3000 nM.
`CNC1CCN(c2ccc3c(c2)CC(CN)(c2cccc(-c4ncnc5[nH]ccc45)c2)C3)C1` (centres unmarked) [Example 53, 1-{2-(Aminomethyl)-2-[3-(7H-pyrrolo[2,3-d]pyrimidin-4-yl)phenyl]-2,3-dihydro-1H-inden-5-yl}-N-methylpyrrolidin-3-amine] was tested, and the IC50 ([3]; HTRF, 60 min room temperature) was greater than 3000 nM and the IC50 [1] was greater than 3000 nM.
Work on `NCC1(c2cccc(-c3ncnc4[nH]ccc34)c2)Cc2ccc(N3CCC(O)C3)cc2C1` (centres unmarked) [Example 54, 1-{2-(Aminomethyl)-2-[3-(7H-pyrrolo[2,3-d]pyrimidin-4-yl)phenyl]-2,3-dihydro-1H-inden-5-yl}pyrrolidin-3-ol] yielded an IC50 [1] greater than 3000 nM.
`CC(O)C1CCN(c2ccc3c(c2)CC(CN)(c2cccc(-c4ncnc5[nH]ccc45)c2)C3)C1` (centres unmarked) [Example 55, 1-(1-{2-(Aminomethyl)-2-[3-(7H-pyrrolo[2,3-d]pyrimidin-4-yl)phenyl]-2,3-dihydro-1H-inden-5-yl}pyrrolidin-3-yl)ethanol] gave an IC50 ([3]; HTRF, 60 min room temperature) greater than 3000 nM and an IC50 [1] greater than 3000 nM.
`NCC1(c2cccc(-c3ncnc4[nH]ccc34)c2)Cc2ccc(N3CCCC(O)C3)cc2C1` (centres unmarked) [Example 58, 1-{2-(Aminomethyl)-2-[3-(7H-pyrrolo[2,3-d]pyrimidin-4-yl)phenyl]-2,3-dihydro-1H-inden-5-yl}piperidin-3-ol] was tested, and the IC50 [1] was less than 500 nM and the IC50 [2] was greater than 3000 nM.
In the case of `N#CC1CCN(c2ccc3c(c2)CC(CN)(c2cccc(-c4ncnc5[nH]ccc45)c2)C3)CC1` (centres unmarked) [Example 59, 1-{2-(Aminomethyl)-2-[3-(7H-pyrrolo[2,3-d]pyrimidin-4-yl)phenyl]-2,3-dihydro-1H-inden-5-yl}piperidine-4-carbonitrile], the IC50 [2] is reported as greater than 3000 nM.
`NCC1(c2cccc(-c3ncnc4[nH]ccc34)c2)Cc2ccc(NC3CCOCC3)cc2C1` (centres unmarked) [Example 60, N-{2-(Aminomethyl)-2-[3-(7H-pyrrolo[2,3-d]pyrimidin-4-yl)phenyl]-2,3-dihydro-1H-inden-5-yl}tetrahydro-2H-pyran-4-amine] was tested, and the IC50 [2] was greater than 3000 nM.
`NCC1(c2cccc(-c3ncnc4[nH]ccc34)c2)Cc2ccc(N3CCCC3)cc2C1` (centres unmarked) [Example 61, 1-{5-Pyrrolidin-1-yl-2-[3-(7H-pyrrolo[2,3-d]pyrimidin-4-yl)phenyl]-2,3-dihydro-1H-inden-2-yl}methanamine] gave an IC50 [1] greater than 3000 nM.
Work on `COCCCNc1ccc2c(c1)CC(CN)(c1cccc(-c3ncnc4[nH]ccc34)c1)C2` (centres unmarked) [Example 66, 2-(Aminomethyl)-N-(3-methoxypropyl)-2-[3-(7H-pyrrolo[2,3-d]pyrimidin-4-yl)phenyl]indan-5-amine] yielded an IC50 [1] greater than 3000 nM.
Work on `COCC1(Nc2ccc3c(c2)CC(CN)(c2cccc(-c4ncnc5[nH]ccc45)c2)C3)CC1` (centres unmarked) [Example 67, 2-(Aminomethyl)-N-[1-(methoxymethyl)cyclopropyl]-2-[3-(7H-pyrrolo[2,3-d]pyrimidin-4-yl)phenyl]indan-5-amine] yielded an IC50 [1] greater than 3000 nM.
Work on `NCC1(c2cccc(-c3ncnc4[nH]ccc34)c2)Cc2ccc(-c3cccc(F)c3)cc2C1` (centres unmarked) [Example 70, 1-{5-(3-Fluorophenyl)-2-[3-(7H-pyrrolo[2,3-d]pyrimidin-4-yl)phenyl]-2,3-dihydro-1H-inden-2-yl}methanamine] yielded an IC50 [2] greater than 3000 nM.
`NCC1(c2cccc(-c3ncnc4[nH]ccc34)c2)Cc2ccc(-c3ccc(F)cc3)cc2C1` (centres unmarked) [Example 71, 1-{5-(4-Fluorophenyl)-2-[3-(7H-pyrrolo[2,3-d]pyrimidin-4-yl)phenyl]-2,3-dihydro-1H-inden-2-yl}methanamine] showed an IC50 [2] greater than 3000 nM.
For `CN(C)c1ccc(-c2ccc3c(c2)CC(CN)(c2cccc(-c4ncnc5[nH]ccc45)c2)C3)cc1` (centres unmarked) [Example 72, 4-{2-(Aminomethyl)-2-[3-(7H-pyrrolo[2,3-d]pyrimidin-4-yl)phenyl]-2,3-dihydro-1H-inden-5-yl}-N,N-dimethylaniline], the IC50 ([3]; HTRF, 60 min room temperature) was less than 500 nM and the IC50 [1] was less than 500 nM.
For `NCC1(c2cccc(-c3ncnc4[nH]ccc34)c2)Cc2ccc(-c3ccc4nccn4c3)cc2C1` (centres unmarked) [Example 73, 1-{5-Imidazo[1,2-a]pyridin-6-yl-2-[3-(7H-pyrrolo[2,3-d]pyrimidin-4-yl)phenyl]-2,3-dihydro-1H-inden-2-yl}methanamine], the IC50 [1] was greater than 3000 nM.
Compound `NCC1(c2cccc(-c3ncnc4[nH]ccc34)c2)Cc2ccc(-c3ccc(N4CCCC4)nc3)cc2C1` (centres unmarked) [Example 75, 1-{5-(6-Pyrrolidin-1-ylpyridin-3-yl)-2-[3-(7H-pyrrolo[2,3-d]pyrimidin-4-yl)phenyl]-2,3-dihydro-1H-inden-2-yl}methanamine] has an IC50 ([3]; HTRF, 60 min room temperature) of less than 500 nM and an IC50 [1] greater than 3000 nM.
For `NCC1(c2cccc(-c3ncnc4[nH]ccc34)c2)Cc2ccc(-c3cccnc3)cc2C1` (centres unmarked) [Example 77, (2-(3-(7H-Pyrrolo[2,3-d]pyrimidin-4-yl)phenyl)-5-(pyridin-3-yl)-2,3-dihydro-1H-inden-2-yl)methanamine], the IC50 [1] was less than 500 nM and the IC50 [2] was greater than 3000 nM.
`NCC1(c2cccc(-c3ncnc4[nH]ccc34)c2)Cc2ccc(-c3ccncc3)cc2C1` (centres unmarked) [Example 78, (2-(3-(7H-Pyrrolo[2,3-d]pyrimidin-4-yl)phenyl)-5-(pyridin-4-yl)-2,3-dihydro-1H-inden-2-yl)methanamine] gave an IC50 [2] greater than 3000 nM.
In the case of `Cc1cc2c(-c3cccc(C4(CN)Cc5ccccc5C4)c3)ncnc2[nH]1` [Example 93, 1-{2-[3-(6-Methyl-7H-pyrrolo[2,3-d]pyrimidin-4-yl)phenyl]-2,3-dihydro-1H-inden-2-yl}methanamine], the IC50 [1] is reported as greater than 3000 nM.
For `NCC1(c2cccc(-c3ncnc4[nH]ccc34)c2)CCc2ccccc2C1` (centres unmarked) [Example 99, 1-{2-[3-(7H-Pyrrolo[2,3-d]pyrimidin-4-yl)phenyl]-1,2,3,4-tetrahydronaphthalen-2-yl}methanamine], the IC50 [3] was less than 500 nM and the IC50 [2] was less than 500 nM.
Compound `NCC1(n2cc(-c3ncnc4[nH]ccc34)ccc2=O)Cc2ccccc2C1` [Example 100, 1-[2-(Aminomethyl)-2,3-dihydro-1H-inden-2-yl]-5-(7H-pyrrolo[2,3-d]pyrimidin-4-yl)pyridin-2(1H)-one] has an IC50 ([3]; HTRF, 60 min room temperature) of less than 500 nM and an IC50 [2] of less than 500 nM.
